Patent US7435837B2, “Dihydrobenzofuranyl alkanamine derivatives and methods for using same” (Wyeth, priority 2003, dated 2008)

Tests used:
[1] = target: T1, human 5-HT2C receptor (Homo sapiens, UniProt P28335); assay: 5-HT2C receptor-stimulated calcium mobilization (FLIPR) in CHO cells; format: cell-based; conditions: for Emax: CHO, read-out: 5-HT2C Function Emax (%); for Emax / 5-HT2C Function Emax (%): percentage of the response observed with a maximally effective concentration of 5-HT; for EC50: calcium mobilization, CHO cells stably expressing human 5-HT2C, read-out: 5-HT2C Function EC50;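 for all read-outs here: Fluo-3-AM fluorescence read on FLIPR every 1 s, agonist added after 10 baseline reads, response taken as peak minus lowest raw fluorescence count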
T1 sequence (P28335 33-458): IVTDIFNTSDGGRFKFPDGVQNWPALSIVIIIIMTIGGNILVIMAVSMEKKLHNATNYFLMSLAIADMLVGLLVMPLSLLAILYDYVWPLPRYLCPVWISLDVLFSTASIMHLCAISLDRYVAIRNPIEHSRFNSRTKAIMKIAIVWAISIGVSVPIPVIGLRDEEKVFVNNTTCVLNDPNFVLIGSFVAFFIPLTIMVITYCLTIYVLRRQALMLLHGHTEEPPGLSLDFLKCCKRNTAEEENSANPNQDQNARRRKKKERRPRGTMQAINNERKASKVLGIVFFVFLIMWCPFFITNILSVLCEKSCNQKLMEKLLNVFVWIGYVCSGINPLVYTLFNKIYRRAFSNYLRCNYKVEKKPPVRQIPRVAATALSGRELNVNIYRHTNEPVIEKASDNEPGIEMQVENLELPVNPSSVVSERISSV

[2] = target: T2, human 5-hydroxytryptamine-2C (h5-HT2C) receptor (Homo sapiens, UniProt P28335); assay: [125I]DOI binding to membranes of CHO cells expressing the human 5-HT2C receptor; conditions: [125I]DOI radioligand, CHO cell membranes, room temperature 60 min; read-out: 5-HT2C Affinity Ki
T2 construct: expressed in transfected cells; host or cells: CHO (Chinese Hamster Ovary) cells; membranes
T2 sequence (P28335 33-458): T1 sequence (P28335 33-458)

Emax [1]	EC50 [1]	Ki [2]	5-HT2C Function Emax (%) [1]	Compound
80%	187 nM	8.5 nM	–	NCC1Cc2cc(F)cc(-c3ccsc3)c2O1 (racemic) [Example 203, (±)-[(5-fluoro-7-thien-3-yl-2,3-dihydro-1-benzofuran-2-yl)methyl]amine]
90%	21 nM	0.13 nM	–	Cc1cc2c(c(-c3ccccc3C(F)(F)F)c1)OC(CN)C2 (racemic) [Example 287, (±)-({5-methyl-7-[2-(trifluoromethyl)phenyl[-2,3-dihydro-7-benzofuran-2-yl}methyl)amine]
80%	996 nM	7 nM	–	NCC1Cc2cc(F)cc(-c3ccccc3)c2O1 (racemic) [Example 103, (±)-1-(5-fluoro-7-phenyl-2,3-dihydro-1-benzofuran-2-yl)methanamine]
60%	183 nM	3.7 nM	–	CNCC1Cc2cccc(-c3cccc(OC)c3)c2O1 (racemic) [Example 417, (±)-[(N-methyl-1-[7-(3-methoxyphenyl)-2,3-dihydro-1-benzofuran-2-yl]methanamine]
90%	8 nM	10 nM	–	COc1cc2c(c(-c3ccccc3OC)c1)OC(CN)C2 (racemic) [Example 359, (±)-{[7-(2-methoxyphenyl)-5-methoxy-2,3-dihydro-1-benzofuran-2-yl]methyl}amine]
90%	72 nM	2.5 nM	–	NCC1Cc2cc(Cl)cc(-c3ccc(F)cc3F)c2O1 (racemic) [Example 250, (±)-{[5-chloro-7-(2,4-difluorophenyl)-2,3-dihydro-1-benzofuran-2-yl]methyl}amine]
90%	3 nM	0.1 nM	–	Cc1cc2c(c(-c3cc(Cl)ccc3Cl)c1)OC(CN)C2 (racemic) [Example 300, (±)-{[7-(2,5-dichlorophenyl)-5-methyl-2,3-dihydro-1-benzofuran-2-yl]methyl}amine]
80%	12 nM	1 nM	–	Cc1cccc(C)c1-c1cccc2c1OC(CN)C2 (single isomer, unassigned; (-)) [Example 57, (−)-1-[7-(2,6-dimethylphenyl)-2,3-dihydro-1-benzofuran-2-yl]methanamine]
80%	75 nM	1.5 nM	–	CNCC1Cc2cc(C)cc(-c3ccc(Cl)cc3)c2O1 (racemic) [Example 481, (±)-{[7-(4-chlorophenyl)-5-methyl-2,3-dihydro-1-benzofuran-2-yl]methyl}methylamine]
100%	0.1 nM	0.14 nM	–	CNC[C@H]1Cc2cc(F)cc(-c3ccccc3Cl)c2O1 [Example 545, (R)-[7-(2-chloro-phenyl)-5-fluoro-2,3-dihydro-benzofuran-2-ylmethyl]-methyl-amine]
60%	903 nM	17 nM	–	Cc1cccc(-c2cc(F)cc3c2OC(CN)C3)c1 (racemic) [Example 198, (±)-{[5-fluoro-7-(3-methylphenyl)-2,3-dihydro-1-benzofuran-2-yl]methyl}amine]
90%	34 nM	5.3 nM	–	CNCC1Cc2cccc(-c3ccccc3F)c2O1 (racemic) [Example 412, (±)-[(N-methyl-1-[7-(2-fluorophenyl)-2,3-dihydro-1-benzofuran-2-yl]methanamine]
100%	93 nM	1 nM	–	NCC1Cc2cc(F)cc(-c3ccccc3F)c2O1 (racemic) [Example 107, (±)-1-[5-fluoro-7-(2-fluorophenyl)-2,3-dihydro-1-benzofuran-2-yl]methanamine]
80%	224 nM	23 nM	–	COc1cc2c(c(-c3cc(Cl)ccc3OC)c1)OC(CN)C2 (racemic) [Example 372, (±)-{[7-(5-chloro-2-methoxyphenyl)-5-methoxy-2,3-dihydro-1-benzofuran-2-yl]methyl}amine]
80%	58 nM	1.7 nM	–	Cc1ccc(-c2cc(C)cc3c2OC(CN)C3)cc1 (racemic) [Example 290, (±)-{[7-(4-methylphenyl)-5-methyl-2,3-dihydro-1-benzofuran-2-yl]methyl}amine]
80%	384 nM	40 nM	–	CNCC1Cc2cc(C(F)(F)F)cc(-c3ccccc3)c2O1 (racemic) [Example 518, (±)-{[N-methyl-1-[7-phenyl-5-(trifluoromethyl)-2,3-dihydro-1-benzofuran-2-yl]methanamine]

Emax [1]	EC50 [1]	Ki [2]	5-HT2C Function Emax (%) [1]	Compound
90%	2 nM	0.23 nM	–	NCC1Cc2cccc(-c3cc(Cl)ccc3Cl)c2O1 (racemic) [Example 163, (±)-{[7-(2,5-dichlorophenyl)-2,3-dihydro-1-benzofuran-2-yl]methyl}amine]
90%	208 nM	9 nM	–	Cc1ccccc1-c1cccc2c1CC(CN)O2 (single isomer, unassigned; (+)) [Example 5, (+)-1-[4-(2-methylphenyl)-2,3-dihydro-1-benzofuran-2-yl]methanamine]
–	66 nM	2 nM	100%	CC(C)c1cccc2c1OC(CN)C2 (single isomer, unassigned; (-)) [Example 19, (−)-(7-isopropyl-2,3-dihydro-1-benzofuran-2-yl)methylamine]
70%	130 nM	40 nM	–	CC(C)c1ccccc1-c1cccc2c1OC(CN)C2 (single isomer, unassigned; (+)) [Example 62, (+)-[7-(2-isopropylphenyl)-2,3-dihydro-1-benzofuran-2-yl]methylamine]
–	132 nM	0.34 nM	90%	CNCC1Cc2cc(C)cc(-c3cc(Cl)ccc3Cl)c2O1 (single isomer, unassigned; (-)) [Example 488, (−)-{[7-(2,5-dichlorophenyl)-5-methyl-2,3-dihydro-1-benzofuran-2-yl]methyl}methylamine]
100%	557 nM	5 nM	–	NCC1Cc2cc(Cl)cc(-c3ccccc3)c2O1 (single isomer, unassigned; (+)) [Example 85, (+)-1-(5-chloro-7-phenyl-2,3-dihydro-1-benzofuran-2-yl)methanamine]
70%	225 nM	26 nM	–	COc1cc2c(c(-c3cccc(C)c3C)c1)OC(CN)C2 (racemic) [Example 363, (±)-{[7-(2,3-dimethylphenyl)-5-methoxy-2,3-dihydro-1-benzofuran-2-yl]methyl}amine]
30%	1090 nM	37 nM	–	CC(C)c1ccccc1-c1cccc2c1OC(CN)C2 (racemic) [Example 61, (±)-[7-(2-isopropylphenyl)-2,3-dihydro-1-benzofuran-2-yl]methylamine]
90%	17 nM	0.55 nM	–	NCC1Cc2cc(F)cc(-c3c(Cl)cccc3Cl)c2O1 (single isomer, unassigned; (+)) [Example 551, (+)-{[7-(2,6 dichlorophenyl)-5-fluoro-2,3-dihydro-1-benzofuran-2-yl]methyl}amine]
–	34 nM	1.5 nM	90%	NCC1Cc2cccc(-c3cccc(F)c3)c2O1 (single isomer, unassigned; (+)) [Example 131, (+)-1-[7-(3-fluorophenyl)-2,3-dihydro-1-benzofuran-2-yl]methanamine]
90%	48 nM	3 nM	–	COc1ccccc1-c1cc(Cl)cc2c1OC(CN)C2 (racemic) [Example 242, (±)-{[5-chloro-7-(2-methoxyphenyl)-2,3-dihydro-1-benzofuran-2-yl]methyl}amine]
80%	59 nM	1.1 nM	–	CNCC1Cc2cccc(-c3ccc(C)cc3)c2O1 (racemic) [Example 418, (±)-[(N-methyl-1-[7-(4-methylphenyl)-2,3-dihydro-1-benzofuran-2-yl]methanamine]
100%	42 nM	1.1 nM	–	Cc1cc(Cl)ccc1-c1cccc2c1OC(CN)C2 (single isomer, unassigned; (+)) [Example 158, (+)-{[7-(4-chloro-2-methylphenyl)-2,3-dihydro-1-benzofuran-2-yl]methyl}amine]
100%	1 nM	2 nM	–	Cc1ccc(Cl)cc1-c1cccc2c1OC(CN)C2 (racemic) [Example 168, (±)-{[7-(5-chloro-2-methylphenyl)-2,3-dihydro-1-benzofuran-2-yl]methyl}amine]
100%	70 nM	13 nM	–	NCC1Cc2cccc(-c3cccc(F)c3)c2O1 (racemic) [Example 64, (±)-1-[7-(3-fluorophenyl)-2,3-dihydro-1-benzofuran-2-yl]methanamine]
100%	8 nM	2 nM	–	NCC1Cc2cccc(-c3ccc(Cl)cc3)c2O1 (single isomer, unassigned; (+)) [Example 77, (+)-1-[7-(4-chlorophenyl)-2,3-dihydro-1-benzofuran-2-yl]methanamine]
